From ChEMBL document CHEMBL1154399, “Induction of voriconazole metabolism by rifampin in a patient with acute myeloid leukemia: importance of interdisciplinary communication to prevent treatment errors with complex medications” (Antimicrob Agents Chemother, 2007)

Columns and labels:
Type in all cases: ADME, organism-based
Homo sapiens [1] = assay: Effect on voriconazole metabolism in po dosed […] infection patient assessed as decrease in voriconazole exposure levels after 30 days; parameters: scale not given: the % may be the effect or the level left; settings: in vivo, 720 h
Homo sapiens [2] = assay: Induction of voriconazole metabolism in po dosed […] infection patient assessed as increase in dihydroxyvoriconazole levels after 30 days; settings: in vivo, 720 h
Homo sapiens [3] = assay: Induction of voriconazole metabolism in po dosed […] infection patient assessed as increase in voriconazole N-oxide metabolite levels after 30 days; settings: in vivo, 720 h
Homo sapiens [4] = assay: Induction of voriconazole metabolism in po dosed […] infection patient assessed as increase in hydroxyvoriconazole levels after 30 days; settings: in vivo, 720 h
[5] = AUC (0 to infinity) in […] infection patient at 400 mg, po administered daily; parameters: dose 400 mg, route oral, time infinity; settings: human, plasma
[6] = Cmax in […] infection patient at 400 mg, po administered daily after 36 days of drug therapy and 30 days of rifampin coadministration; parameters: dose 400 mg, route oral; settings: human, in vivo
[7] = AUC (0 to infinity) in […] infection patient at 400 mg, po administered daily after 36 days of drug therapy and 30 days of rifampin coadministration; parameters: dose 400 mg, route oral, time infinity; settings: human, plasma
[8] = Cmax in […] infection patient at 400 mg, po administered daily; parameters: dose 400 mg, route oral; settings: human, in vivo

Row | Activity (Homo sapiens [1]) | fold change (FC) (Homo sapiens [2]) | fold change (FC) (Homo sapiens [3]) | fold change (FC) (Homo sapiens [4]) | Structure (SMILES) | AUC(0-inf) [5] | Cmax [6] | AUC(0-inf) [7] | Cmax [8]
1 | 99% | 422 | 45 | 178 | CO[C@H]1/C=C/O[C@@]2(C)Oc3c(C)c(O)c4c(O)c(c(/C=N/N5CCN(C)CC5)c(O)c4c3C2=O)NC(=O)/C(C)=C\C=C\[C@H](C)[C@H](O)[C@@H](C)[C@@H](O)[C@@H](C)[C@H](OC(C)=O)[C@@H]1C [RIFAMPIN] | – | – | – | –
2 | – | – | – | – | C[C@@H](c1ncncc1F)[C@](O)(Cn1cncn1)c1ccc(F)cc1F [VORICONAZOLE] | 27.4 µg·h/mL | 0.038 µg/mL | 0.145 µg·h/mL | 3.92 µg/mL
